Blank lines part the entries; values can stand above or below the substance they belong to.
Assays:
[1] = Thermo stability test of esters and/or salts of hexahydro-β-acid (2% premix, 100° C., HPLC); assay type: physicochemical; conditions: premix with corncob powder, initial content 2.0%, oven 100° C.
Experimental: Samples (the premixes) were placed in crucibles, and then placed in oven at 100° C. for different durations. Then 1.0 g of each of the samples (three duplicate samples from each sample) and 50 ml of ethanol were added into a conical flask, followed by the addition of 100 μL of concentrated hydrochloric acid. The mixture was then subjected to sonication for 5 minutes, and then filtrated. The filtrate was transferred into a 50 ml volumetric flask, topped up to the final volume with ethanol, and then filtered with a 0.45 μm microporous membrane and subjected to HPLC analysis.

[2] = test system: Duroc-Yorkshire-Landrace crossbred lean pigs; assay: Application effect in pig feed (14 days feeding trial); assay type: in vivo; conditions: for Average daily weight gain / Average weight gain / Feed conversion efficiency / Consumption: pigs; for Consumption: 20 pigs
Source text: 120 67-day-aged, Duroc-Yorkshire-Landrace crossbred lean pigs similar in weight were randomly divided into six groups, 20 pigs in each group.

[3] = test system: fast-grown yellow feather broilers (female); assay: Application effect in broiler feed (30 days feeding trial); assay type: in vivo; conditions: for Average daily weight gain / Average weight gain / Feed conversion efficiency / Survival rate / Consumption: broilers, 30 days; for Consumption: 100 broilers per group
Source text: 500 1-day-aged, healthy, fast-grown yellow feather broilers (female) in the same growing state and similar in weight were randomly divided into five groups according to table 2, 100 broilers in each group. Broilers of each group were fed with different dosages of mono decanoate ester of hexahydro-β-acid or hexahydro-β-acid.

[4] = Group 3, 5 mg/kg mixed with feed
[5] = Group 4, 25 mg/kg mixed with feed
[6] = Group 5, 5 mg/kg mixed with feed
[7] = Group 6, 25 mg/kg mixed with feed

- Content when being heated at 100° C. for 20 h [1]: 0.17%
- Content when being heated at 100° C. for 44 h [1]: 0.12%
Substance: Cobalt Salt of Acetate Ester of hexahydro-β-acid

- Content when being heated at 100° C. for 20 h [1]: 1.69%
- Content when being heated at 100° C. for 44 h [1]: 1.63%
Substance: Ferrous Salt of Acetate Ester of hexahydro-β-acid

- Content when being heated at 100° C. for 20 h [1]: 1.21%
- Content when being heated at 100° C. for 44 h [1]: 0.31%
Substance: calcium salt of acetate ester of hexahydro-β-acid

- Content when being heated at 100° C. for 20 h [1]: 0.35%
- Content when being heated at 100° C. for 44 h [1]: 0.09%
Substance: calcium salt of hexahydro-β-acid

- Content when being heated at 100° C. for 20 h [1]: 1.98%
- Content when being heated at 100° C. for 44 h [1]: 1.93%
Substance: cetylate ester of hexahydro-β-acid
- feed conversion efficiency of the pigs ([2]; in words): significantly improved
- weight gain of the pigs ([2]; in words): significantly improved
- Average daily weight gain [2, 4]: 0.512 kg/day
- Average weight gain [2, 4]: 7.18 kg
- Feed conversion efficiency [2, 4]: 2.078
- Consumption [2, 4]: 298.4 kg
- Average daily weight gain [2, 5]: 0.570 kg/day
- Average weight gain [2, 5]: 7.985 kg
- Feed conversion efficiency [2, 5]: 1.706
- Consumption [2, 5]: 272.5 kg
- Average daily weight gain [2, 6]: 0.508 kg/day
- Average weight gain [2, 6]: 7.11 kg
- Feed conversion efficiency [2, 6]: 1.949
- Consumption [2, 6]: 277.2 kg
- Average daily weight gain [2, 7]: 0.580 kg/day
- Average weight gain [2, 7]: 8.12 kg
- Feed conversion efficiency [2, 7]: 1.690
- Consumption [2, 7]: 274.5 kg

- Content when being heated at 100° C. for 20 h [1]: 1.50%
- Content when being heated at 100° C. for 44 h [1]: 1.28%
Substance: copper salt of acetate ester of hexahydro-β-acid

- Content when being heated at 100° C. for 20 h [1]: 0.14%
- Content when being heated at 100° C. for 44 h [1]: 0.05%
Substance: ferrous salt of hexahydro-β-acid

Substance: hexahydro-β-acid [reference compound]
- Average daily weight gain ([3]; 2 ppm mixed with feed): 24.83 g
- Average weight gain ([3]; 2 ppm mixed with feed): 745 g
- Feed conversion efficiency ([3]; 2 ppm mixed with feed): 1.983
- Survival rate ([3]; 2 ppm mixed with feed): 100%
- Consumption ([3]; 2 ppm mixed with feed): 147.76 kg
- Average daily weight gain ([3]; 20 ppm mixed with feed): 25.26 g
- Average weight gain ([3]; 20 ppm mixed with feed): 758 g
- Feed conversion efficiency ([3]; 20 ppm mixed with feed): 1.968
- Survival rate ([3]; 20 ppm mixed with feed): 100%
- Consumption ([3]; 20 ppm mixed with feed): 149.18 kg
- Content when being heated at 100° C. for 20 h [1]: 0.06%
- Content when being heated at 100° C. for 44 h [1]: 0%

- Content when being heated at 100° C. for 20 h [1]: 2.0%
- Content when being heated at 100° C. for 44 h [1]: 1.96%
Substance: laurate ester of hexahydro-β-acid

- Content when being heated at 100° C. for 20 h [1]: 1.42%
- Content when being heated at 100° C. for 44 h [1]: 0.7%
Substance: magnesium salt of acetate ester of hexahydro-β-acid

- Content when being heated at 100° C. for 20 h [1]: 1.49%
- Content when being heated at 100° C. for 44 h [1]: 0.91%
Substance: magnesium salt of hexahydro-β-acid

- Content when being heated at 100° C. for 20 h [1]: 0%
- Content when being heated at 100° C. for 44 h [1]: 0%
Substance: manganese salt of acetate ester of hexahydro-β-acid

- Content when being heated at 100° C. for 20 h [1]: 1.52%
- Content when being heated at 100° C. for 44 h [1]: 1.11%
Substance: mono acetate ester of hexahydro-β-acid

Substance: mono decanoate ester of hexahydro-β-acid
- feed conversion efficiency of the broilers ([3]; 30 days test period, in words): significantly improved
- weight gain of the broilers ([3]; 30 days test period, in words): significantly improved
- Average daily weight gain ([3]; 2 ppm mixed with feed): 25.6 g
- Average weight gain ([3]; 2 ppm mixed with feed): 768 g
- Feed conversion efficiency ([3]; 2 ppm mixed with feed): 1.926
- Survival rate ([3]; 2 ppm mixed with feed): 100%
- Consumption ([3]; 2 ppm mixed with feed): 147.94 kg
- Average daily weight gain ([3]; 20 ppm mixed with feed): 26.57 g
- Average weight gain ([3]; 20 ppm mixed with feed): 797 g
- Feed conversion efficiency ([3]; 20 ppm mixed with feed): 1.837
- Survival rate ([3]; 20 ppm mixed with feed): 100%
- Consumption ([3]; 20 ppm mixed with feed): 146.42 kg
- improvement of the productivity of the broilers ([3]; compared with hexahydro-β-acid in the same dosage): more significant than that of the broilers fed with hexahydro-β-acid in the same dosage
- Content when being heated at 100° C. for 20 h [1]: 1.93%
- Content when being heated at 100° C. for 44 h [1]: 1.82%

- Content when being heated at 100° C. for 20 h [1]: 1.64%
- Content when being heated at 100° C. for 44 h [1]: 0.70%
Substance: zinc salt of acetate ester of hexahydro-β-acid

- Content when being heated at 100° C. for 20 h [1]: 0.95%
- Content when being heated at 100° C. for 44 h [1]: 0.52%
Substance: zinc salt of hexahydro-β-acid

Source: patent US20160368853A1, “MONOESTERS, INNER COMPLEX SALTS OR MONOESTER SALTS OF HEXAHYDRO-BETA-ACID AND APPLICATION THEREOF AS ANIMAL FEED ADDITIVES” (GUANGZHOU INSIGHTER BIOTECHNOLOGY CO., LTD., priority 2014, published 2016)
